Reference: patent US8206732B2, “Pyrithione biocides enhanced by silver, copper, or zinc ions” (Arch Chemicals, Inc., priority 1999, dated 2012)
Values joined by “and” are separate entries in the source; they are usually repeats but may differ in a detail not shown here. Equal entries are not always repeated.

How the values were obtained:
Fusarium sp. = assay: MIC in Tryptic Soy Broth, microtiter (Example 1); type: cell-based; details: TSB with 0.5 ppm Cu (II), 28° C., 5 days
Protocol: Equal volumes of bacterial suspension (10^6 bacteria per milliliter of TSB) containing Pseudomonas aeruginosa ATCC 9027 or fungal spore suspension (10^5 spores per milliliter of TSB) containing Aspergillus niger ATCC 6275 or species of Fusarium and Cephalosporium isolated from contaminated metalworking fluid were added to each microtiter plate well, and the plates were incubated at 28° C. Controls were prepared for cultures inoculated into TSB with and without Cu (II).

Fusarium sp. biofilm = assay: Viable biofilm cells on discs in metalworking fluid (Example 5); type: cell-based; details: polycarbonate disc, 100 PPM NaPT, 10 PPM Zn (II) or both, 4 days after treatment
Protocol: Experiments were conducted to investigate the efficacy of the composition of the present invention to inhibit the survival, growth, and proliferation of free-living and biofilm populations of bacteria and fungi in metalworking fluids. […] Metalworking fluids (MWF) employed included 5% soluble oil MWF, 5% semi-synthetic MWF, or 5% synthetic MWS. For testing against bacteria, metalworking fluids were supplemented with 2% (weight-to-weight ratio (w:w)) of 5 g/L yeast extract (Difco), Metalworking fluids were supplemented with 2% (weight-to-weight (w:w)) of Tryptic Soy Broth (Difco) for fungal tests.
For each experiment, three ml of a 5% metalworking fluid was added to each of twelve, sterile, 16 mm×150 mm glass culture tubes. […] Fusarium sp. was added to the tubes to final concentrations of 10^5 spores/ml for the fungal tests. Tubes incubated for 3 days at 28° C. and 180 rpms.
After the treatments additions were performed, the culture tubes resumed incubation at 28° C., 180 rpms for an additional 4 days.
After 4 days, culture tubes were removed from the incubator and viable counts of organisms from the bulk MWF fluid and the biofilm were determined using serial dilution and drop plating techniques. For biofilms, polycarbonate discs were removed from tubes, dip-rinsed in three successive washes of de-ionized water to remove loosely attached cells, and transferred to 25 mm×150 mm culture tubes containing 10 ml of sterile, de-ionized water. Biofilms were removed from discs and resuspended by vortexing tubes for 30 seconds. Bacteria were plated on to R2A Agar plates and incubated at 37° C. Fungi were plated onto Malt Agar plates and incubated at 28° C. Mean colony forming units per ml (for bulk) and per square cm (cm^2) biofilm were determined for each experimental treatment.

[1] = tested on: Staphylococcus aureus 27217; assay: Checkerboard MIC test, pyrithiones with silver salts; type: cell-based; details: NaPT alone or in the inhibitory mixture with silver salt; TSB pH 7.3, 35° C., 1 to 2 days
[2] = tested on: Pseudomonas aeruginosa ATCC 9027; assay: MIC in Tryptic Soy Broth, microtiter (Example 1); type: cell-based; details: 28° C.
[3] = tested on: Staphylococcus aureus ATCC 27217; assay: Zone of inhibition test (paper disc on TSA); type: cell-based; details: 6.5 mm discs; 0.135% pyrithione, 0.1% ZnCl2 or both; 28° C., 24 hr
[4] = tested on: P. aeruginosa 9027 free-living cells; assay: Viable free-living cells in bulk metalworking fluid (Example 5); type: cell-based, Pseudomonas aeruginosa; details: 100 PPM NaPT; for viable free-living cells in the bulk fluid: 5% soluble oil MWF, 2.5 PPM Zn(II) or both, 4 days
[5] = tested on: mixed bacteria (Pseudomonas aeruginosa 9027, Escherichia coli 8739, Pseudomonas fluorescens 12201, Pseudomonas rubescens 12202, Pseudomonas putida); assay: Various mixtures of NaPT and Zn(II) against bacteria in 5% metalworking fluid (Example 8, Table 10a); type: cell-based, Pseudomonas spp.

[Na+].[O-][n+]1ccccc1[S-] [NaPT, sodium pyrithione]
MIC NaPT (with 0.5 ppm Cu) (Fusarium sp.): 8 ppm | viable biofilm microorganisms (Fusarium sp. biofilm; 5% semisynth. MWF): 18 cells/cm^2 | viable biofilm microorganisms (Fusarium sp. biofilm; 5% solub. oil MWF): 4.6 × 10^5 cells/cm^2 | viable biofilm microorganisms (Fusarium sp. biofilm; 5% synthetic MWF): 7.3 × 10^4 cells/cm^2 | viable biofilm microorganisms (Fusarium sp. biofilm; 100% TSB): 96 cells/cm^2 | MIC NaPT [1]: 4 ppm and 8 ppm | MIC NaPT (with 0.5 ppm Cu) ([2]; TSB with 0.5 ppm Cu (II), 5-6 days): 256 ppm | MIC ([2]; TSB, incubated 5-6 days, single agent (NaPT without Cu)): 256 ppm | Zone of Inhibition [3]: 31 mm | viable free-living cells in the bulk fluid ([4]; tube with Polycarbonate surface): 4.9 × 10^5 cells/ml | viable free-living cells in the bulk fluid ([4]; tube with Rubber surface): 50 cells/ml | viable free-living cells in the bulk fluid ([4]; tube with Steel surface): 3.5 × 10^6 cells/ml | viable free-living microorganisms ([4]; 5% synthetic MWF, 10 PPM Zn (II) or both, 4 days after treatment): 7.8 × 10^6 cells/ml and 7.0 × 10^5 cells/ml and 5.4 × 10^5 cells/ml | Bacteria/ml ([5]; semi-synthetic, NaPT 100 PPM, Day 1): 1.8 × 10^5 Bacteria/ml | Bacteria/ml ([5]; semi-synthetic, NaPT 100 PPM, Day 1, tube of the Day 1/Day 4 series): 1.7 × 10^4 Bacteria/ml | Bacteria/ml ([5]; semi-synthetic, NaPT 100 PPM, Day 2): 1.9 × 10^5 Bacteria/ml | Bacteria/ml ([5]; semi-synthetic, NaPT 100 PPM, Day 4): 1.2 × 10^4 Bacteria/ml | Bacteria/ml ([5]; semi-synthetic, NaPT 100 PPM, Day 7): 510 Bacteria/ml | Bacteria/ml ([5]; semi-synthetic, NaPT 300 PPM, Day 1): 1.2 × 10^5 Bacteria/ml | Bacteria/ml ([5]; semi-synthetic, NaPT 300 PPM, Day 2): 0 Bacteria/ml | Bacteria/ml ([5]; semi-synthetic, NaPT 300 PPM, Day 7): 0 Bacteria/ml | Bacteria/ml ([5]; semi-synthetic, NaPT 500 PPM, Day 2): 0 Bacteria/ml | Bacteria/ml ([5]; semi-synthetic, NaPT 500 PPM, Day 7): 0 Bacteria/ml | Bacteria/ml ([5]; soluble oil, NaPT 100 PPM, Day 1): 2.4 × 10^5 Bacteria/ml | Bacteria/ml ([5]; soluble oil, NaPT 100 PPM, Day 1, tube of the Day 1/Day 4 series): 5.9 × 10^6 Bacteria/ml | Bacteria/ml ([5]; soluble oil, NaPT 100 PPM, Day 2): 6.0 × 10^3 Bacteria/ml | Bacteria/ml ([5]; soluble oil, NaPT 100 PPM, Day 4): 1.5 × 10^6 Bacteria/ml | Bacteria/ml ([5]; soluble oil, NaPT 100 PPM, Day 7): 2.0 × 10^4 Bacteria/ml | Bacteria/ml ([5]; soluble oil, NaPT 300 PPM, Day 1): 7.1 × 10^4 Bacteria/ml | Bacteria/ml ([5]; soluble oil, NaPT 300 PPM, Day 2): 9.0 × 10^3 Bacteria/ml | Bacteria/ml ([5]; soluble oil, NaPT 300 PPM, Day 7): 0 Bacteria/ml | Bacteria/ml ([5]; soluble oil, NaPT 500 PPM, Day 2): 450 Bacteria/ml | Bacteria/ml ([5]; soluble oil, NaPT 500 PPM, Day 7): 0 Bacteria/ml | Bacteria/ml ([5]; synthetic, NaPT 100 PPM, Day 1): 2.9 × 10^6 Bacteria/ml | Bacteria/ml ([5]; synthetic, NaPT 100 PPM, Day 1, tube of the Day 1/Day 4 series): 2.1 × 10^6 Bacteria/ml | Bacteria/ml ([5]; synthetic, NaPT 100 PPM, Day 2): 1.7 × 10^5 Bacteria/ml | Bacteria/ml ([5]; synthetic, NaPT 100 PPM, Day 4): 2.0 × 10^5 Bacteria/ml | Bacteria/ml ([5]; synthetic, NaPT 100 PPM, Day 7): 1.5 × 10^4 Bacteria/ml | Bacteria/ml ([5]; synthetic, NaPT 300 PPM, Day 1): 5.0 × 10^4 Bacteria/ml | Bacteria/ml ([5]; synthetic, NaPT 300 PPM, Day 2): 4.0 × 10^3 Bacteria/ml | Bacteria/ml ([5]; synthetic, NaPT 300 PPM, Day 7): 0 Bacteria/ml | Bacteria/ml ([5]; synthetic, NaPT 500 PPM, Day 1): 1.2 × 10^5 Bacteria/ml | Bacteria/ml ([5]; synthetic, NaPT 500 PPM, Day 2): 1.0 × 10^3 Bacteria/ml | Bacteria/ml ([5]; synthetic, NaPT 500 PPM, Day 7): 50 Bacteria/ml
